The values below come from patent publication US20230041138A1, “TREATMENT OF HIS HYPORESPONDERS” (NewAmsterdam Pharma B.V. (Dutch Registration No. 55971946), priority 2021, published 2023).

The data set is described as follows: Phase 2 study: PK follow-up, plasma obicetrapib concentrations after end of treatment. The data set is classed as in vivo, human. On the procedure: The screening period for this study took up to 2-weeks. Afterwards patients were randomized to placebo, 5 mg obicetrapib or 10 mg obicetrapib for an 8-week treatment period. After the treatment period, patients continued for a 4-week safety follow-up and a 15-week PK follow-up.
The primary outcome measure was LDL-C (percent change). Secondary outcome measures included ApoB, Non-HDL-C and HDL-C (percent change). The Intent-to-Treat (ITT) Population included all participants randomized into the study. The Modified ITT (mITT) Population included all participants in the ITT Population who receive at least 1 dose of any study drug and have a baseline value for the LDL-C assessment. The Safety Population included all participants who receive at least 1 dose of any study drug. The mITT Population was the primary population for the efficacy analyses. The primary efficacy analysis of the percent change in LDL-C was performed using a mixed model for repeated measures (MMRM) approach. In order to maintain the overall Type I error rate, the secondary efficacy endpoints were tested sequentially at the 0.05 significance level according to the pre-specified order of hierarchy. All safety endpoints were summarized descriptively. No statistical inference was applied to the safety endpoints. Plasma obicetrapib concentrations were summarized with descriptive statistics based on the […].

As for `CCOC(=O)N1c2ccc(C(F)(F)F)cc2[C@@H](N(Cc2cc(C(F)(F)F)cc(C(F)(F)F)c2)c2ncc(OCCCC(=O)O)cn2)C[C@H]1CC` [Obicetrapib, (2R,4S)-4-{[3,5-bis(trifluoromethyl)benzyl]-[5-(3-carboxypropoxy)pyrimidin-2-yl]amino}-2-ethyl-6-trifluoromethyl-3,4-dihydro-2H-quinoline-1-carboxylic acid ethyl ester], the “Plasma obicetrapib levels, median decrease after end-of-treatment” value is, setting by setting: (5 mg group, 4 weeks after end-of-treatment) 92%; (5 mg group, 8 weeks after end-of-treatment) 98%; (5 mg group, 15 weeks after end-of-treatment) 99%; (10 mg group, 4 weeks after end-of-treatment) 93%; (10 mg group, 8 weeks after end-of-treatment) 98%; (10 mg group, 15 weeks after end-of-treatment) 99%.
